PMC8092876, “A Leucyl-tRNA Synthetase Inhibitor with Broad-Spectrum Antimycobacterial Activity” (Antimicrobial Agents and Chemotherapy, 2021)

Test system: M. abscessus Bamboo
Format: cell-based
Conditions: M. abscessus versus M. tuberculosis

With `CC(C)(O)COc1ccc(Br)c2c1B(O)O[C@@H]2CN` [EC/11770] the “frequency of resistance lower than for other benzoxaboroles in M. tuberculosis” value was 100 fold.
